From patent US20260049088A1, “TRICYCLIC HETEROCYCLIC DERIVATIVES, COMPOSITIONS AND USES THEREOF” (Danatlas Pharmaceuticals Co., Ltd., priority 2023, published 2026)

Target: T1, hPARG (Homo sapiens, UniProt Q86W56)
T1 construct: made in house; host or cells: E. coli
Assay: PARG enzymatic activity assay (HTRF)
Format: biochemical
Details: C-terminal His6-tag hPARG 65 pM, biotinylated-NAD ribosylated PARP1 substrate 8 nM
Description: HTRF assay was used to measure the ability of compounds to inhibit the activity of […] in vitro. C-terminal His6—tag PARG expressed in E. coli was purified and stored at −80° C. in aliquots. Assay measurements were performed with 1×buffer comprising 50 mM Tris pH 7.4, 0.1 mg/mL BSA, 3 mM EDTA, 0.4 mM EGTA, 1 mM DTT, 50 mM KCl and 0.01% Tween 20. Compounds dissolved in DMSO were plated into a 384-well assay plate (PerkinElmer, Catalog #: 6008280) in duplicate using a dispenser (Labcyte, Echo 665), and tested on a 10-point 4-fold serial dilution. Add 5 μL Enzyme mix [hPARG (C-terminal His6—tag, 4.2 μM), 65 pM final] to the test wells. The plates were covered and left to incubate for 60 minutes at RT before the addition of 5 μL substrate mix [biotinylated-NAD ribosylated PARP1 (6.1 μM), 8 nM final] to initiate reaction. After incubating 10 minutes at RT, add 2.5 μL Streptavidin-Eu cryptate (Cisbio, Catalog #: 610SAKLA) and 2.5 μL Mab anti 6HIS-XL665 (Cisbio, Catalog #: 61HISXLA) to the plate, and incubate for 60 minutes at RT. Read on a multimode plate reader (PerkinElmer, Envision 2015) in time-resolved fluorescence (TRF) mode, with excitation at 337 nm and emission at both 620 nm and 665 nm. Average HTRF signal of high control (Wells with 1% DMSO) was calculated and as Vehicle Control (VC). Average HTRF signal of low control (no Enzyme) was calculated and as Positive control (PC).
IC50 values were determined by fitting the data to the standard 4 parameters with Hill Slope using GraphPad Prism software.

T1 sequence (Q86W56 whole entry): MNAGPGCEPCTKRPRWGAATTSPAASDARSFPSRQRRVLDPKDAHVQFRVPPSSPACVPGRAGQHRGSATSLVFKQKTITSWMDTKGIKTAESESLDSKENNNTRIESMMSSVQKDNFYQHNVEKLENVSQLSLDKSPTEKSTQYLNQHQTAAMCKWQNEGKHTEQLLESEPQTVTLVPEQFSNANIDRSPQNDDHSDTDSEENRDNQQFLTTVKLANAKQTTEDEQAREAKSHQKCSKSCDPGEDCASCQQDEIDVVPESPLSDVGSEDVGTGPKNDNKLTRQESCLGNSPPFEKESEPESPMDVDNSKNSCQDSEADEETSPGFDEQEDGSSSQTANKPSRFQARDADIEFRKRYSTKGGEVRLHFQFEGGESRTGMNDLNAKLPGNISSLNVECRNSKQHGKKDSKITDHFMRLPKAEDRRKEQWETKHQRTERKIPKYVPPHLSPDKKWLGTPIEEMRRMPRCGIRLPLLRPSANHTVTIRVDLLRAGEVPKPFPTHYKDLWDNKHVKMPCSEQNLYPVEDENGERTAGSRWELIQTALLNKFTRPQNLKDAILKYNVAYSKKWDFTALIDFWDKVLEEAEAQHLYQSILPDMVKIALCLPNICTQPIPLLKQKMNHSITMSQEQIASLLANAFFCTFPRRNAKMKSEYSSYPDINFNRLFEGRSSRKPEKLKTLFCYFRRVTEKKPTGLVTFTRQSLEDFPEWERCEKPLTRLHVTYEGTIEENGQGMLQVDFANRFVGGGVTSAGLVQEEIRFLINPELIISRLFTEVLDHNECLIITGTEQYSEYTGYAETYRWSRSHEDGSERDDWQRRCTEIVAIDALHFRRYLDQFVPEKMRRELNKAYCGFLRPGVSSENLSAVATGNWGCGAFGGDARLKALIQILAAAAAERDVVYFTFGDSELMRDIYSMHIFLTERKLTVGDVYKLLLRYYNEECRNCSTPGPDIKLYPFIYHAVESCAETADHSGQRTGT

Row | SMILES | IC50 [nM]
1 | N#CC1(NS(=O)(=O)c2ccc3c4c(OCCCCN5CCOCC5)ncnc4n(-c4nnc(C(F)F)s4)c3c2)CC1 [Example 3, N-(1-Cyanocyclopropyl)-9-(5-(difluoromethyl)-1,3,4-thiadiazol-2-yl)-4-(4-morpholinobutoxy)-9H-pyrimido[4,5-b]indole-7-sulfonamide] | ≤ 100
2 | CC(C)C(=O)N1CCN(CCOc2ncnc3c2c2ccc(S(=O)(=O)NC4(C#N)CC4)cc2n3-c2nnc(C(F)F)s2)CC1 [Example 4, N-(1-Cyanocyclopropyl)-9-(5-(difluoromethyl)-1,3,4-thiadiazol-2-yl)-4-(2-(4-isobutyrylpiperazin-1-yl)ethoxy)-9H-pyrimido[4,5-b]indole-7-sulfonamide] | ≤ 100
3 | CN(C)C(=O)N1CCN(CCOc2ncnc3c2c2ccc(S(=O)(=O)NC4(C#N)CC4)cc2n3-c2nnc(C(F)F)s2)CC1 [Example 5, 4-(2-((7-(N-(1-Cyanocyclopropyl)sulfamoyl)-9-(5-(difluoromethyl)-1,3,4-thiadiazol-2-yl)-9H-pyrimido[4,5-b]indol-4-yl)oxy)ethyl)-N,N-dimethylpiperazine-1-carboxamide] | ≤ 100
4 | CN(C)C(=O)COc1ncnc2c1c1ccc(S(=O)(=O)NC3(C#N)CC3)cc1n2-c1nnc(C(F)F)s1 [Example 6, 2-((7-(N-(1-Cyanocyclopropyl)sulfamoyl)-9-(5-(difluoromethyl)-1,3,4-thiadiazol-2-yl)-9H-pyrimido[4,5-b]indol-4-yl)oxy)-N,N-dimethylacetamide] | 100 to 1000
5 | N#CC1(NS(=O)(=O)c2ccc3c4c(O[C@H]5CCOC5)ncnc4n(-c4nnc(C(F)F)s4)c3c2)CC1 [Example 7, (S)-N-(1-Cyanocyclopropyl)-9-(5-(difluoromethyl)-1,3,4-thiadiazol-2-yl)-4-((tetrahydrofuran-3-yl)oxy)-9H-pyrimido[4,5-b]indole-7-sulfonamide] | ≤ 100
6 | N#CC1(NS(=O)(=O)c2ccc3c4c(O[C@@H]5CCOC5)ncnc4n(-c4nnc(C(F)F)s4)c3c2)CC1 [Example 8, (R)-N-(1-Cyanocyclopropyl)-9-(5-(difluoromethyl)-1,3,4-thiadiazol-2-yl)-4-((tetrahydrofuran-3-yl)oxy)-9H-pyrimido[4,5-b]indole-7-sulfonamide] | ≤ 100
7 | N#CC1(NS(=O)(=O)c2ccc3c4c(OCC5CCOC5)ncnc4n(-c4nnc(C(F)F)s4)c3c2)CC1 (stereo not shown) [Example 9, N-(1-Cyanocyclopropyl)-9-(5-(difluoromethyl)-1,3,4-thiadiazol-2-yl)-4-((tetrahydrofuran-3-yl)methoxy)-9H-pyrimido[4,5-b]indole-7-sulfonamide] | ≤ 100
8 | CCN(CC)CCOc1ncnc2c1c1ccc(S(=O)(=O)NC3(C#N)CC3)cc1n2-c1nnc(C(F)F)s1 [Example 10, N-(1-Cyanocyclopropyl)-4-(2-(diethylamino)ethoxy)-9-(5-(difluoromethyl)-1,3,4-thiadiazol-2-yl)-9H-pyrimido[4,5-b]indole-7-sulfonamide] | ≤ 100
9 | N#CC1(NS(=O)(=O)c2ccc3c4c(OCCn5cccn5)ncnc4n(-c4nnc(C(F)F)s4)c3c2)CC1 [Example 12, 4-(2-(1H-Pyrazol-1-yl)ethoxy)-N-(1-cyanocyclopropyl)-9-(5-(difluoromethyl)-1,3,4-thiadiazol-2-yl)-9H-pyrimido[4,5-b]indole-7-sulfonamide] | ≤ 100
10 | CN(CC(=O)O)c1ncnc2c1c1ccc(S(=O)(=O)NC3(C#N)CC3)cc1n2-c1nnc(C(F)F)s1 [Example 19, N-(7-(N-(1-Cyanocyclopropyl)sulfamoyl)-9-(5-(difluoromethyl)-1,3,4-thiadiazol-2-yl)-9H-pyrimido[4,5-b]indol-4-yl)-N-methylglycine] | ≤ 100
11 | CN(Cc1ccncc1)c1ncnc2c1c1ccc(S(=O)(=O)NC3(C#N)CC3)cc1n2-c1nnc(C(F)F)s1 [Example 21, N-(1-Cyanocyclopropyl)-9-(5-(difluoromethyl)-1,3,4-thiadiazol-2-yl)-4-(methyl(pyridin-4-ylmethyl)amino)-9H-pyrimido[4,5-b]indole-7-sulfonamide] | ≤ 100
12 | CN(Cc1ccccn1)c1ncnc2c1c1ccc(S(=O)(=O)NC3(C#N)CC3)cc1n2-c1nnc(C(F)F)s1 [Example 22, N-(1-Cyanocyclopropyl)-9-(5-(difluoromethyl)-1,3,4-thiadiazol-2-yl)-4-(methyl(pyridin-2-ylmethyl)amino)-9H-pyrimido[4,5-b]indole-7-sulfonamide] | 100 to 1000
13 | CSc1ncnc2c1c1ccc(S(=O)(=O)NC3(C#N)CC3)cc1n2-c1nnc(C(F)F)s1 [Example 25, N-(1-cyanocyclopropyl)-9-(5-(difluoromethyl)-1,3,4-thiadiazol-2-yl)-4-(methylthio)-9H-pyrimido[4,5-b]indole-7-sulfonamide] | ≤ 100

The next lines start with the values.

Row | IC50 [nM] | SMILES
14 | ≤ 100 | N#CC1(NS(=O)(=O)c2ccc3c4c(OCCN5CCOCC5)ncnc4n(-c4nnc(C(F)F)s4)c3c2)CC1 [Example 1, N-(1-Cyanocyclopropyl)-9-(5-(difluoromethyl)-1,3,4-thiadiazol-2-yl)-4-(2-morpholinoethoxy)-9H-pyrimido[4,5-b]indole-7-sulfonamide]
15 | ≤ 100 | N#CC1(NS(=O)(=O)c2ccc3c4c(OCCCN5CCOCC5)ncnc4n(-c4nnc(C(F)F)s4)c3c2)CC1 [Example 2, N-(1-Cyanocyclopropyl)-9-(5-(difluoromethyl)-1,3,4-thiadiazol-2-yl)-4-(3-morpholinopropoxy)-9H-pyrimido[4,5-b]indole-7-sulfonamide]
16 | ≤ 100 | N#CC1(NS(=O)(=O)c2ccc3c4c(OCC(=O)N5CCOCC5)ncnc4n(-c4nnc(C(F)F)s4)c3c2)CC1 [Example 11, N-(1-Cyanocyclopropyl)-9-(5-(difluoromethyl)-1,3,4-thiadiazol-2-yl)-4-(2-morpholino-2-oxoethoxy)-9H-pyrimido[4,5-b]indole-7-sulfonamide]
17 | ≤ 100 | CN(CCN1CCOCC1)c1ncnc2c1c1ccc(S(=O)(=O)NC3(C#N)CC3)cc1n2-c1nnc(C(F)F)s1 [Example 13, N-(1-cyanocyclopropyl)-9-(5-(difluoromethyl)-1,3,4-thiadiazol-2-yl)-4-(methyl(2-morpholinoethyl)amino)-9H-pyrimido[4,5-b]indole-7-sulfonamide]
18 | ≤ 100 | CN(C)c1ncnc2c1c1ccc(S(=O)(=O)NC3(C#N)CC3)cc1n2-c1nnc(C(F)F)s1 [Example 14, N-(1-Cyanocyclopropyl)-9-(5-(difluoromethyl)-1,3,4-thiadiazol-2-yl)-4-(dimethylamino)-9H-pyrimido[4,5-b]indole-7-sulfonamide]
19 | ≤ 100 | CCN(CC)CCN(C)c1ncnc2c1c1ccc(S(=O)(=O)NC3(C#N)CC3)cc1n2-c1nnc(C(F)F)s1 [Example 15, N-(1-Cyanocyclopropyl)-4-((2-(diethylamino)ethyl)(methyl)amino)-9-(5-(difluoromethyl)-1,3,4-thiadiazol-2-yl)-9H-pyrimido[4,5-b]indole-7-sulfonamide]
20 | ≤ 100 | N#CC1(NS(=O)(=O)c2ccc3c4c(NCCN5CCOCC5)ncnc4n(-c4nnc(C(F)F)s4)c3c2)CC1 [Example 16, N-(1-Cyanocyclopropyl)-9-(5-(difluoromethyl)-1,3,4-thiadiazol-2-yl)-4-((2-morpholinoethyl)amino)-9H-pyrimido[4,5-b]indole-7-sulfonamide]
21 | ≤ 100 | CN(CCCN1CCOCC1)c1ncnc2c1c1ccc(S(=O)(=O)NC3(C#N)CC3)cc1n2-c1nnc(C(F)F)s1 [Example 17, N-(1-Cyanocyclopropyl)-9-(5-(difluoromethyl)-1,3,4-thiadiazol-2-yl)-4-(methyl(3-morpholinopropyl)amino)-9H-pyrimido[4,5-b]indole-7-sulfonamide]
22 | ≤ 100 | CCN(CCN1CCOCC1)c1ncnc2c1c1ccc(S(=O)(=O)NC3(C#N)CC3)cc1n2-c1nnc(C(F)F)s1 [Example 18, N-(1-Cyanocyclopropyl)-9-(5-(difluoromethyl)-1,3,4-thiadiazol-2-yl)-4-(ethyl(2-morpholinoethyl)amino)-9H-pyrimido [4,5-b]indole-7-sulfonamide]
23 | ≤ 100 | CN(CC(=O)N1CCOCC1)c1ncnc2c1c1ccc(S(=O)(=O)NC3(C#N)CC3)cc1n2-c1nnc(C(F)F)s1 [Example 20, N-(1-Cyanocyclopropyl)-9-(5-(difluoromethyl)-1,3,4-thiadiazol-2-yl)-4-(methyl(2-morpholino-2-oxoethyl)amino)-9H-pyrimido[4,5-b]indole-7-sulfonamide]
24 | ≤ 100 | CN(CC1CCOC1)c1ncnc2c1c1ccc(S(=O)(=O)NC3(C#N)CC3)cc1n2-c1nnc(C(F)F)s1 (stereo not shown) [Example 23, N-(1-Cyanocyclopropyl)-9-(5-(difluoromethyl)-1,3,4-thiadiazol-2-yl)-4-(methyl((tetrahydrofuran-3-yl)methyl)amino)-9H-pyrimido[4,5-b]indole-7-sulfonamide]
25 | 100 to 1000 | CN(CCn1cccn1)c1ncnc2c1c1ccc(S(=O)(=O)NC3(C#N)CC3)cc1n2-c1nnc(C(F)F)s1 [Example 24, 4-((2-(1H-Pyrazol-1-yl)ethyl)(methyl)amino)-N-(1-cyanocyclopropyl)-9-(5-(difluoromethyl)-1,3,4-thiadiazol-2-yl)-9H-pyrimido[4,5-b]indole-7-sulfonamide]
